# Laboratory results as given in US20040071683A1, “Methods for treating pervasive development disorders” (priority 1999, published 2004).
# No end group written: not given here.
# How the values were obtained:
# autistic children = experiment: CARS (Childhood Autism Rating Scale) test pre- and post-secretin administration (Experiment 1); type: in vivo; conditions: 16 autistic children
# Description: Upon determining that a given child was likely to benefit from secretin administration based on the results of the fecal chymotrypsin test, the child was administered a CARS (Childhood Autism Rating Scale) test prior to being scheduled for secretin infusion.
# (§1) For each of the 16 autistic children tested, a preferred secretin infusion process according to the present invention was performed involving the administering of 1 U/kg of body weight of Secretin-Ferring for a period of nine months at intervals of approximately 6 weeks. In addition, another CARS test was administered to each of the 16 autistic children 3 weeks post secretin administration to determine if their autism had changed post infusion.
# A preferred secretin infusion process includes the initial step of prepping an arm of the candidate child with an IV injection of saline. A test dose of 1U of Secretin-Ferring is then administered to the child. Approximately one minute after infusion, the child is examined for signs of allergic reaction including rash, increased heart rate, and increase of blood pressure. […] Subsequently, each child receives a 1 U/kg of body weight infusion of Secretin-Ferring approximately every 6 weeks for 9 months. It is to be understood that any commercially available form of secretin may be used.
# fecal chymotrypsin = experiment: Fecal Chymotrypsin Test after secretin infusion in autistic children (Experiments 1 and 2); type: in vivo
# Description: In this experiment, 16 children diagnosed as having autism were administered the following Fecal Chymotrypsin Test in accordance with an embodiment of the invention. First, approximately 2 grams of stool were collected from each child and placed in a sterile container (although it is to be understood that any quantity of stool may be collected, as 2 grams of stool is not a required amount). Each stool sample was then analyzed using, e.g., an enzymatic photospectrometry analysis as is known by those skilled in the art, to determine the level of fecal chymotrypsin in the stool. Although the enzymatic photospectrophotometry process is preferred, any suitable conventional method may be used for measuring the fecal chymotrypsin levels. The measured chymotrypsin levels of the 16 autistic children are illustrated in FIG. 13.
# After determining the chymotrypsin levels of the stools, each of these levels were compared with threshold chymotrypsin levels to determine if the child was likely to benefit from secretin administration. By way of example, with the fecal chymotrypsin tests of the stool samples being performed at 30° C., normal levels of chymotrypsin are deemed to lie above 8.4 U/gram, whereas pathologically abnormal levels are deemed to lie below 4.2 U/gram. In addition, chymotrypsin levels between 8.4 U/gram and 4.2 U/gram are considered equivocal, and further testing of the individual's fecal chymotrypsin levels over a period of time should be performed.
# as §1
# A preferred secretin infusion process includes the initial step of prepping an arm of the candidate child with an IV injection of saline. A test dose of 1U of Secretin-Ferring is then administered to the child. Approximately one minute after infusion, the child is examined for signs of allergic reaction including rash, increased heart rate, and increase of blood pressure. […] Subsequently, each child receives a 1 U/kg of body weight infusion of Secretin-Ferring approximately every 6 weeks for 9 months. […]
# In this experiment, 37 autistic children with abnormal fecal chymotrypsin levels were administered secretin over the course of 6 months using the secretin infusion process described above. Their fecal chymotrypsin (FC) levels were measured weekly using the fecal chymotrypsin test described above.
# [1] = test system: children diagnosed with Autism; conditions: secretin given as diagnostic procedure during upper gastrointestinal endoscopy; Horvath et al. 1998; cited from earlier work
substance,measurement,setting,value
"secretin (HSDGTFTSELSRLRDSARLQRLLQGLV; ends and bridges not checked; UniProt P63298 33-59, looked up) [a gastrointestinal peptide hormone]",CARS fear component post-secretin,autistic children; 3 weeks post infusion,increased
same,CARS component scores post-secretin (all except fear),"autistic children; 3 weeks post infusion, FIGS. 2-12",demonstrated improvement
same,overall CARS scores post-secretin vs pre-secretin,"autistic children; approximately 3 weeks after first secretin administration, FIG. 1",overall decrease
same,# Autistic Children w/ Equivocal FC levels,"fecal chymotrypsin; 6 Months Post-Secretin Administration, of 37 autistic children (0 pre-secretin), equivocal between 8.4 and 4.2 U/gram",2
same,# Autistic Children w/ normal FC levels,"fecal chymotrypsin; 6 Months Post-Secretin Administration, of 37 autistic children (0 pre-secretin), normal above 8.4 U/gram",34
same,# Autistic Children w/ Abnormal FC levels,"fecal chymotrypsin; 6 Months Post-Secretin Administration, of 37 autistic children (37 abnormal pre-secretin), abnormal below 4.2 U/gram",1
same,fecal chymotrypsin level post-secretin administration compared with pre-secretin,"fecal chymotrypsin; each of 16 autistic children, approximately one week after first infusion of 1 U/kg Secretin-Ferring IV, FIG. 14 vs FIG. 13",increased
same,symptoms associated with Autism after secretin administration,[1],ameliorating the symptoms associated with Autism
